Broadly, the IC50 is the concentration that inhibits the measured activity by half.

The target in this test is T1, human URAT1 (Homo sapiens, UniProt Q96S37).
T1 construct: Human URAT1 full length cDNA was subcloned to expression vector pcDNA3.1; expressed in transfected cells; host or cells: HEK293 cells (pcDNA3.1, geneticin-selected)
T1 sequence (Q96S37 1-553): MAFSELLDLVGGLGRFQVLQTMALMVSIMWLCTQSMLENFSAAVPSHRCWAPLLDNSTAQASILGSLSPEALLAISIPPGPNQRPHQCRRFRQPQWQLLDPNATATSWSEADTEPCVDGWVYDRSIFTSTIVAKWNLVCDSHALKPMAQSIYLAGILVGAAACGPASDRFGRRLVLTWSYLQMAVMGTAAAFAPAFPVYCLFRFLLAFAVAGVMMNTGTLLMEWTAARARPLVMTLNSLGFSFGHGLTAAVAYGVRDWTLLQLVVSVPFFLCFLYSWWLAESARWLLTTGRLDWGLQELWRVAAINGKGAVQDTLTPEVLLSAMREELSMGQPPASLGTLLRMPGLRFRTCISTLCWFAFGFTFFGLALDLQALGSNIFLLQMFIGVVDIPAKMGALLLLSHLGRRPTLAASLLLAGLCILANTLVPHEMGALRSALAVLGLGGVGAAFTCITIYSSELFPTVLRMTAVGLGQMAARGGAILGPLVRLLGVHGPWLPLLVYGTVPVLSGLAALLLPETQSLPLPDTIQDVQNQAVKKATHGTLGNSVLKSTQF
The test can be described thus: Uric acid transport inhibitory test using human URAT1-expressing cells. The test is classed as cell-based. As to conditions: human URAT1-expressing HEK293 cells, 14C-uric acid 50 μM, uptake 5 min, room temperature; read-out: hURAT1 IC50. The text has this: Experimental Example 1 Uric Acid Transport Inhibitory Test Using Human URAT1-Expressing Cells
Human URAT1 full length cDNA was subcloned to expression vector pcDNA3.1 and human URAT1 gene was transfected into human embryonic kidney derived cell line (HEK293 cells) by liposome method using Lipofectamine2000. Simultaneously, HEK293 cells transfected with expression vector pcDNA3.1 alone (hereinafter mock cells) were also produced. HEK293 cells expressing human URAT1 gene or mock cells were selected with geneticin resistance as an index. The functional expression of human URAT1 gene was confirmed by a method similar to the following method, using ^14C-uric acid transport into the cells as an index.
Human URAT1-expressing HEK293 cells or mock cells were cultured in Dulbecco's modified Eagle's MEM medium (high glucose) containing 10% fetal bovine serum, 0.5 mg/mL geneticin sulfate, 100 units/mL penicillin and 100 μg/mL streptomycin under the conditions of 37° C. and 5% CO2 in an incubator. The cells were plated in a 96 well plate (poly-D-Lysine coated) at 1×10^5 cells/well and the following uric acid transport inhibitory test was performed 24 hr later. This test was performed at room temperature.
After the medium was removed by aspiration from each well, the cells were washed once with Hank's Balanced Salt Solution (HBSS) and preincubated with HBSS (100 μL/well) for 5 min. HBSS was aspirated and an assay buffer (wherein NaCl in the above-mentioned HBSS had been substituted with Na-gluconate) containing various concentrations of the Example compound and a radioactive ligand (14C-uric acid; final concentration 50 μM) was added to each well at 50 μL/well and an uptake reaction was carried out for 5 min. After the reaction, the cells were washed twice with ice-cold HBSS (150 μL/well), and Microscinti™ 20 (PerkinElmer) was added at 50 μL/well. The cells were lysed by stirring and the radioactivity of each well was measured by a liquid scintillation counter (TOP COUNT, Packard).
The uric acid transport rate (%) of the Example compound at each concentration was calculated relative to the radioactivity (difference in radioactivity between human URAT1-expressing HEK293 cells and mock cells without addition of Example compound (DMSO addition)) showing URAT1 specific uric acid transport as 100%, and the concentration (IC50) of the Example compound necessary for inhibiting the uric acid transport rate by 50% was determined. In Table 24-Table 27, “+++” means IC50 value of less than 300 nM, “++” means IC50 value of 300 nM to less than 3000 nM, and “+” means IC50 value of not less than 3000 nM.
Regarding `COC(=O)CN1C(=O)COc2ccccc21` [Example 1, (3-oxo-2,3-dihydrobenzo[1,4]oxazin-4-yl)acetic acid methyl ester], the IC50 is no less than 3 µM.

Consider `Cc1cc(C)c2c(c1)N(CCC(=O)O)C(=O)C(c1ccccc1)O2` (stereo not shown) [Example 72, 3-(6,8-dimethyl-3-oxo-2-phenyl-2,3-dihydrobenzo[1,4]oxazin-4-yl)propionic acid], for which the IC50 is less than 0.3 µM.

Take `Cc1cc(C)c2c(c1)N(CCC(=O)O)C(=O)C(Cc1ccccc1)O2` (stereo not shown) [Example 92, 3-(2-benzyl-6,8-dimethyl-3-oxo-2,3-dihydrobenzo[1,4]oxazin-4-yl)propionic acid]: the IC50 is no less than 3 µM.

With `CC(C)c1cccc2c1OC(C(C)C)CN2C(=O)CC(=O)O` (stereo not shown) [Example 31, 3-(2,8-diisopropyl-2,3-dihydrobenzo[1,4]oxazin-4-yl)-3-oxopropionic acid], the IC50 was no less than 3 µM.

For `CC(C)C1Oc2c(Cl)cccc2N(CCC(=O)O)C1=O` (stereo not shown) [Example 100, 3-(8-chloro-2-isopropyl-3-oxo-2,3-dihydrobenzo[1,4]oxazin-4-yl)propionic acid], the half-maximal inhibitory concentration (IC50) was less than 0.3 µM.

On to `O=C(O)CN1C(=O)COc2ccccc21` [Example 3, (3-oxo-2,3-dihydrobenzo[1,4]oxazin-4-yl)acetic acid], for which the IC50 was no less than 3 µM.

Turning to `O=C(O)CCN1C(=O)C(c2ccccc2)Oc2cc(Cl)ccc21` (stereo not shown) [Example 76, 3-(7-chloro-3-oxo-2-phenyl-2,3-dihydrobenzo[1,4]oxazin-4-yl)propionic acid], the IC50 is no less than 3 µM.

Take `Cc1ccc2c(c1)N(CCC(=O)O)C(=O)C(C(C)C)O2` (stereo not shown) [Example 58, 3-(2-isopropyl-6-methyl-3-oxo-2,3-dihydrobenzo[1,4]oxazin-4-yl)propionic acid]: the IC50 fell in the range of 0.3 to 3 µM.

Take `CC(C)c1cccc2c1OC(c1ccccc1)C(=O)N2CC(=O)O` (stereo not shown) [Example 26, (8-isopropyl-3-oxo-2-phenyl-2,3-dihydrobenzo[1,4]oxazin-4-yl)acetic acid]: the half-inhibitory concentration (IC50) is no less than 3 µM.

On to `CCC1Oc2c(C)cc(C)cc2N(CCC(=O)O)C1=O` (stereo not shown) [Example 87, 3-(2-ethyl-6,8-dimethyl-3-oxo-2,3-dihydrobenzo[1,4]oxazin-4-yl)propionic acid], for which the IC50 is less than 0.3 µM.

Regarding `CC(C)C1Oc2c(cc(C(F)(F)F)cc2C(F)(F)F)N(CCC(=O)O)C1=O` (stereo not shown) [Example 103, 3-[2-isopropyl-3-oxo-6,8-bis(trifluoromethyl)-2,3-dihydrobenzo[1,4]oxazin-4-yl]propionic acid], the IC50 lay within 0.3 to 3 µM.

Take `O=C(O)CN1C(=S)COc2ccccc21` [Example 17, (3-thioxo-2,3-dihydrobenzo[1,4]oxazin-4-yl)acetic acid]: the IC50 is no less than 3 µM.

In the case of `CCc1cccc2c1OC(C(C)C)CN2C(=O)/C=C/C(=O)O` (stereo not shown) [Example 60, (E)-4-(8-ethyl-2-isopropyl-2,3-dihydrobenzo[1,4]oxazin-4-yl)-4-oxo-2-butenoic acid], the IC50 was in the range of 0.3 to 3 µM.

For `Cc1cc(C)c2c(c1)N(CCC(=O)O)C(=O)C(C)O2` (stereo not shown) [Example 86, 3-(2,6,8-trimethyl-3-oxo-2,3-dihydrobenzo[1,4]oxazin-4-yl)propionic acid], the IC50 is no less than 3 µM.

As for `O=C(O)CN1C(=S)CSc2ccccc21` [Example 12, (3-thioxo-2,3-dihydrobenzo[1,4]thiazin-4-yl)acetic acid], the IC50 was no less than 3 µM.

With `CC1(C)Oc2ccccc2N(CC(=O)O)C1=O` [Example 5, (2,2-dimethyl-3-oxo-2,3-dihydrobenzo[1,4]oxazin-4-yl)acetic acid], the IC50 is no less than 3 µM.

Regarding `CC(C)C1Oc2c(ccc3ccccc23)N(CCC(=O)O)C1=O` (stereo not shown) [Example 99, 3-(2-isopropyl-3-oxo-2,3-dihydronaphtho[1,2-b][1,4]oxazin-4-yl)propionic acid], the IC50 was no less than 3 µM.

With `CC(C)C1CN(C(=O)/C=C/C(=O)O)c2cccc(C3CCCCC3)c2O1` (stereo not shown) [Example 79, (E)-4-(8-cyclohexyl-2-isopropyl-2,3-dihydrobenzo[1,4]oxazin-4-yl)-4-oxo-2-butenoic acid], the IC50 is no less than 3 µM.

Turning to `Cc1ccc2c(c1)OC(c1ccccc1)C(=O)N2CCC(=O)O` (stereo not shown) [Example 48, 3-(7-methyl-3-oxo-2-phenyl-2,3-dihydrobenzo[1,4]oxazin-4-yl)propionic acid], the IC50 was no less than 3 µM.

Turning to `CC(C)c1cccc2c1OCC(=O)N2CC(=O)O` [Example 10, (8-isopropyl-3-oxo-2,3-dihydrobenzo[1,4]oxazin-4-yl)acetic acid], the IC50 was no less than 3 µM.

As to `CCC1Oc2c(C(C)C)cccc2N(CCC(=O)O)C1=O` (stereo not shown) [Example 40, 3-(2-ethyl-8-isopropyl-3-oxo-2,3-dihydrobenzo[1,4]oxazin-4-yl)propionic acid], the IC50 lay in the range of 0.3 to 3 µM.

As for `CC(C)c1cccc2c1OCC(=O)N2CCC(=O)O` [Example 35, 3-(8-isopropyl-3-oxo-2,3-dihydrobenzo[1,4]oxazin-4-yl)propionic acid], the IC50 is no less than 3 µM.

For the molecule `Cc1cc(C)c2c(c1)N(CCC(=O)O)C(=O)C(C)(C)O2` [Example 89, 3-(2,2,6,8-tetramethyl-3-oxo-2,3-dihydrobenzo[1,4]oxazin-4-yl)propionic acid], the IC50 is no less than 3 µM.

`COC(=O)CN1C(=O)CSc2ccccc21` [Example 2, (3-oxo-2,3-dihydrobenzo[1,4]thiazin-4-yl)acetic acid methyl ester]: the IC50 was no less than 3 µM.

On to `O=C(O)/C=C/C(=O)N1CCOc2ccccc21` [Example 28, (E)-4-(2,3-dihydrobenzo[1,4]oxazin-4-yl)-4-oxo-2-butenoic acid], for which the IC50 is no less than 3 µM.

In the case of `CC(C)c1cccc2c1OC(C(C)C)C(=S)N2CCCC(=O)O` (stereo not shown) [Example 20, 4-(2,8-diisopropyl-3-thioxo-2,3-dihydrobenzo[1,4]oxazin-4-yl)butyric acid], the IC50 was no less than 3 µM.

For `CC(C)c1cccc2c1OC(C(C)C)CN2C(=O)CCC(=O)O` (stereo not shown) [Example 21, 4-(2,8-diisopropyl-2,3-dihydrobenzo[1,4]oxazin-4-yl)-4-oxobutyric acid], the IC50 is no less than 3 µM.

On to `Cc1cccc2c1OC(C(C)C)C(=O)N2CCC(=O)O` (stereo not shown) [Example 44, 3-(2-isopropyl-8-methyl-3-oxo-2,3-dihydrobenzo[1,4]oxazin-4-yl)propionic acid], for which the IC50 was less than 0.3 µM.

In the case of `CC(C)C1Sc2ccccc2N(CCC(=O)O)C1=O` (stereo not shown) [Example 22, 3-(2-isopropyl-3-oxo-2,3-dihydrobenzo[1,4]thiazin-4-yl)propionic acid], the IC50 was in the range of 0.3 to 3 µM.

Consider `Cc1ccc2c(c1)OC(C(C)C)C(=O)N2CCC(=O)O` (stereo not shown) [Example 43, 3-(2-isopropyl-7-methyl-3-oxo-2,3-dihydrobenzo[1,4]oxazin-4-yl)propionic acid], for which the IC50 is 0.3 to 3 µM.

Consider `CCc1cccc2c1OC(C(C)C)C(=O)N2CCC(=O)O` (stereo not shown) [Example 53, 3-(8-ethyl-2-isopropyl-3-oxo-2,3-dihydrobenzo[1,4]oxazin-4-yl)propionic acid], for which the IC50 was in the range of 0.3 to 3 µM.

In the case of `CC(C)C1Oc2ccccc2N(CC(=O)O)C1=O` (stereo not shown) [Example 6, (2-isopropyl-3-oxo-2,3-dihydrobenzo[1,4]oxazin-4-yl)acetic acid], the IC50 was no less than 3 µM.

For `CC(C)C1Oc2ccc([N+](=O)[O-])cc2N(CCC(=O)O)C1=O` (stereo not shown) [Example 96, 3-(2-isopropyl-6-nitro-3-oxo-2,3-dihydrobenzo[1,4]oxazin-4-yl)propionic acid], the IC50 was in the range of 0.3 to 3 µM.

`O=C(O)CCN1C(=O)COc2ccccc21` [Example 19, 3-(3-oxo-2,3-dihydrobenzo[1,4]oxazin-4-yl)propionic acid]: the IC50 is no less than 3 µM.

The record behind these values is patent publication US20070197512A1, “Carboxylic Acid Compounds and Use Thereof” (Japan Tobacco Inc., priority 2006, published 2007).
